This is an account of results in patent US11780826B2 (Amgen Inc., priority 2017, dated 2023).

The test deals with Bovine cardiac myofibrils. In words: In vitro model of dose-dependent myofibril ATPase modulation (AC1.4, pyruvate kinase/lactate dehydrogenase-coupled ATPase assay at pCa25). It is filed as biochemical. Particulars: concentration at which ATPase activity was 1.4-fold higher than the bottom of the dose curve, mean of a minimum of two independent tests. How it is done: In vitro Model of Dose-Dependent Myofibril ATPase Modulation: Dose responses were measured using a calcium-buffered, pyruvate kinase and lactate dehydrogenase-coupled ATPase assay containing the following reagents (concentrations expressed are final assay concentrations): Potassium PIPES (12 mM), MgCl2 (2 mM), ATP (1 mM), DTT (1 mM), BSA (0.1 mg/mi), NADH (0.5 mM), PEP (1.5 mM), pyruvate kinase (4 U/ml), lactate dehydrogenase (8 U/ml), and antifoam (90 ppm). The pH was adjusted to 6.80 at 22° C. by addition of potassium hydroxide.
Bovine cardiac myofibrils were obtained by homogenizing the appropriate tissue in the presence of detergent. Such treatment removes membranes and majority of soluble cytoplasmic proteins but leaves intact cardiac sarcomeric acto-myosin apparatus. Concentrations of myofibrils were adjusted to achieve the necessary rate of ATP hydrolysis (typically 0.25-1.0 mg/ml).
Assays were performed by first preparing a dilution series of test chemical entity, each with an assay mixture containing potassium Pipes, MgCl2, BSA, DTT, pyruvate kinase, lactate dehydrogenase, myofibrils, antifoam, EGTA, CaCl2, and water. The assay was started by adding an equal volume of solution containing potassium Pipes, MgCl2, BSA, DTT, ATP, NADH, PEP, antifoam, and water. ATP hydrolysis was monitored by absorbance at 340 nm. The resulting dose response curve was fit by the 4 parameter equation y=Bottom+((Top−Bottom)/(1+((EC50/X)^Hill))). […] AC1.4 values reported in the table below are mean values based on a minimum of two independent tests.

In turn, `C[C@@H](NC(=O)[C@H]1CCCN1C(=O)c1cccc(S(=O)(=O)N2CC(C#N)C2)c1)c1ccc(C(F)F)cc1F` [Example 49, 1-((3-((3-cyano-1-azetidinyl)sulfonyl)phenyl)carbonyl)-N-((1R)-1-(4-(difluoromethyl)-2-fluorophenyl)ethyl)-D-prolinamide] returned an AC1.4 of 0.05315 µM.

As for `CCNc1ccc(S(C)(=O)=O)cc1C(=O)N1[C@@H](C(=O)N[C@@H](c2ccc(C(F)(F)F)cc2F)C2CC2)C[C@H]2C[C@H]21` [Example 50, (1R,3R,5R)-N-((R)-cyclopropyl(2-fluoro-4-(trifluoromethyl)phenyl)methyl)-2-(2-(ethylamino)-5-(methylsulfonyl)benzoyl)-2-azabicyclo[3.1.0]hexane-3-carboxamide], the AC1.4 was 0.0546 µM. In the case of `N#CC1CN(S(=O)(=O)N2CCC[C@H](C(=O)N3CCC[C@@H]3C(=O)NCc3ccc(Cl)c(F)c3)C2)C1` [Example 51, N-(4-chloro-3-fluorobenzyl)-1-(((3S)-1-((3-cyano-1-azetidinyl)sulfonyl)-3-piperidinyl)carbonyl)-D-prolinamide], the AC1.4 is 0.0553 µM.

`N#CC1CN(S(=O)(=O)c2cccc(C(=O)N3CCC[C@@H]3C(=O)N[C@@H](c3ccc(S(F)(F)(F)(F)F)cc3)C3CC3)c2)C1` [Example 52, 1-(3-((3-cyano-1-azetidinyl)sulfonyl)benzoyl)-N-((R)-cyclopropyl(4-(pentafluoro-lambda~6~-sulfanyl)phenyl)methyl)-D-prolinamide] displayed an AC1.4 of 0.05535 µM. `N#CC1CN(S(=O)(=O)c2cc(F)cc(C(=O)N3CCC[C@@H]3C(=O)NCc3ccc(C(F)(F)F)cc3)c2)C1` [Example 53, 1-((3-((3-cyano-1-azetidinyl)sulfonyl)-5-fluorophenyl)carbonyl)-N-(4-(trifluoromethyl)benzyl)-D-prolinamide] yielded an AC1.4 of 0.0574 µM. Compound `C[C@@H](NC(=O)[C@H]1COCCN1C(=O)[C@H]1CCCN(S(=O)(=O)N2CC(C#N)C2)C1)c1ccc(C(F)(F)F)cc1F` [Example 54, (3R)-4-(((3S)-1-((3-cyano-1-azetidinyl)sulfonyl)-3-piperidinyl)carbonyl)-N-((1R)-1-(2-fluoro-4-(trifluoromethyl)phenyl)ethyl)-3-morpholinecarboxamide] yielded an AC1.4 of 0.0583 µM. To `N#CC1CN(S(=O)(=O)c2cccc(C(=O)N3CCC[C@@H]3C(=O)NCc3cc(F)cc(F)c3)c2)C1` [Example 55, 1-(3-((3-cyano-1-azetidinyl)sulfonyl)benzoyl)-N-(3,5-difluorobenzyl)-D-prolinamide] belongs 0.0606 µM. In turn, `N#CC1CN(S(=O)(=O)N2CCC[C@H](C(=O)N3C[C@@H](F)C[C@@H]3C(=O)NCc3ccc(C(F)(F)F)cc3)C2)C1` [Example 56, (4S)-1-(((3S)-1-((3-cyano-1-azetidinyl)sulfonyl)-3-piperidinyl)carbonyl)-4-fluoro-N-(4-(trifluoromethyl)benzyl)-D-prolinamide] came in with an AC1.4 of 0.06215 µM. With `N#CC1CN(S(=O)(=O)c2cccc(C(=O)N3CCC[C@@H]3C(=O)N[C@H](CO)c3ccc(Cl)cc3)c2)C1` [Example 57, N-((1S)-1-(4-chlorophenyl)-2-hydroxyethyl)-1-(3-((3-cyano-1-azetidinyl)sulfonyl)benzoyl)-D-prolinamide], the AC1.4 is 0.06485 µM. In the case of `CN(C)S(=O)(=O)c1cccc(C(=O)N2CCC[C@@H]2C(=O)N[C@@H](c2ccc(C(F)(F)F)cc2F)C2CC2)c1` [Example 58, N-((R)-cyclopropyl(2-fluoro-4-(trifluoromethyl)phenyl)methyl)-1-(3-(dimethylsulfamoyl)benzoyl)-D-prolinamide], the AC1.4 was determined as 0.06485 µM. Turning to `N#C[C@H]1C[C@@H](S(=O)(=O)N2CCC[C@H](C(=O)N3CCC[C@@H]3C(=O)NCc3ccc(C(F)(F)F)cc3)C2)C1` [Example 59, 1-(((3S)-1-((cis-3-cyanocyclobutyl)sulfonyl)-3-piperidinyl)carbonyl)-N-(4-(trifluoromethyl)benzyl)-D-prolinamide], the AC1.4 turned out to be 0.06495 µM. In turn, `Cc1cc(C(F)(F)F)ccc1CNC(=O)[C@H]1CCCN1C(=O)[C@H]1CCCN(S(=O)(=O)N2CC(C#N)C2)C1` [Example 60, 1-(((3S)-1-((3-cyano-1-azetidinyl)sulfonyl)-3-piperidinyl)carbonyl)-N-(2-methyl-4-(trifluoromethyl)benzyl)-D-prolinamide] showed an AC1.4 of 0.0657 µM. To `CC(C)Nc1ccc(S(C)(=O)=O)cc1C(=O)N1[C@@H](C(=O)N[C@@H](c2ccc(C(F)(F)F)cc2F)C2CC2)C[C@H]2C[C@H]21` [Example 61, (1R,3R,5R)-N-((R)-cyclopropyl(2-fluoro-4-(trifluoromethyl)phenyl)methyl)-2-(5-(methylsulfonyl)-2-(2-propanylamino)benzoyl)-2-azabicyclo[3.1.0]hexane-3-carboxamide] belongs 0.0687 µM. The compound `N#CC1CN(S(=O)(=O)N2CCC[C@H](C(=O)N3CCC[C@@H]3C(=O)NCc3ccc(C(F)(F)F)cc3F)C2)C1` [Example 62, 1-(((3S)-1-((3-cyano-1-azetidinyl)sulfonyl)-3-piperidinyl)carbonyl)-N-(2-fluoro-4-(trifluoromethyl)benzyl)-D-prolinamide] yielded an AC1.4 of 0.07198 µM.

In turn, `N#CC1CN(S(=O)(=O)N2CCC[C@H](C(=O)N3CCC[C@@H]3C(=O)NCc3ccc(C(F)(F)F)cc3Cl)C2)C1` [Example 63, N-(2-chloro-4-(trifluoromethyl)benzyl)-1-(((3S)-1-((3-cyano-1-azetidinyl)sulfonyl)-3-piperidinyl)carbonyl)-D-prolinamide] had an AC1.4 of 0.07385 µM. Then `N#CC1CN(S(=O)(=O)c2cccc(C(=O)N3CCC[C@@H]3C(=O)NCc3ccc(Cl)c(F)c3)c2)C1` [Example 64, N-(4-chloro-3-fluorobenzyl)-1-((3-((3-cyano-1-azetidinyl)sulfonyl)phenyl)carbonyl)-D-prolinamide], with 0.0744 µM; and `N#CC1CN(S(=O)(=O)N2CCC[C@H](C(=O)N3CCCC[C@@H]3C(=O)NCc3ccc(C(F)(F)F)cc3)C2)C1` [Example 65, (2R)-1-(((3S)-1-((3-cyano-1-azetidinyl)sulfonyl)-3-piperidinyl)carbonyl)-N-(4-(trifluoromethyl)benzyl)-2-piperidinecarboxamide], with 0.0748 µM.

`CCS(=O)(=O)c1cccc(C(=O)N2[C@@H](C(=O)N[C@@H](c3cc(F)c(Cl)cc3F)C3COC3)C[C@H]3C[C@H]32)c1` [Example 66, (1R,3R,5R)-N-((R)-(4-chloro-2,5-difluorophenyl)(3-oxetanyl)methyl)-2-(3-(ethylsulfonyl)benzoyl)-2-azabicyclo[3.1.0]hexane-3-carboxamide]: the AC1.4 amounted to 0.0766 µM. Then `CC(C)C[C@@H](NC(=O)[C@H]1CCCN1C(=O)[C@H]1CCCN(S(=O)(=O)N2CC(C#N)C2)C1)c1ccc(C(F)(F)F)cc1` [Example 68, 1-(((3S)-1-((3-cyano-1-azetidinyl)sulfonyl)-3-piperidinyl)carbonyl)-N-((1R)-3-methyl-1-(4-(trifluoromethyl)phenyl)butyl)-D-prolinamide], with 0.0784 µM.
